Assays:
[1] = test system: Human umbilical vein endothelial cells; assay: Chromatin organization (GFP-H2B, H3K9me3) and histone H3/H4 acetylation; format: cell-based; conditions: 3-D culture, VEGF/HGF-stimulated, blebbistatin or nocodazole
From the text: At sites of tissue damage, inflammation or neoplasia, fibrinogen is converted into a 3-D meshwork of fibrin fibrils that serve as a structural support for endothelial cells undergoing neovascularization (Chun et al. 2006. Cell, 125: 577-591; Hiraoka et al. 1998. Cell, 95: 365-377; Schafer and Werner. 2008. Nat. Rev. Mol. Cell Biol., 9: 628-638; Zhou et al. 2008. Genes Dev., 22: 1231-1243). This process can be recapitulated in vitro by embedding serum-supplemented human endothelial cells within a 3-D fibrin gel in the presence of the pro-angiogenic factors, VEGF and HGF. Human umbilical vein endothelial cells were isolated from umbilical cords by perfusion of the umbilical vein with type 3 collagenase (Worthington, Lakewood, N.J.) and cultured in Medium-199 (Invitrogen, Carlsbad, Calif.) with 20% human serum and 50 μg/ml endothelial cell growth supplement (ECGS; BD Biosciences, Franklin Lakes, N.J.). For 3-D culture, endothelial cells were suspended in a solution of thrombin and aprotinin (Sigma, St. Louis, Mo.) and mixed 1:1 with a solution of 6 mg/ml fibrinogen (Calbiochem, Gibbstown, N.J.). Vasculogenesis was triggered by treatment with 100 ng/ml VEGF, 50 ng/ml HGF (Genentech, San Francisco, Calif.). Fibronectin fibrillogenesis was tracked in 3-D by co-culture with human fibronectin (Sigma) labeled with Alexa-594 (Invitrogen).
Yet, multi-lobed nuclei and anomalous nuclear pore complex distributions can be observed in laminopathies, a pleiotropic series of genetic disorders wherein mutations in lamin or emerin impact chromatin organization, histone modifications, and transcriptional activity (Csoka et al., 2004. Aging Cell, 3: 235-243; Dechat et al., 2008. Genes Dev, 22: 832-853; Dillon, 2008. Dev Cell, 15: 182-186; Malhas et al., 2007. J. Cell Biol., 176: 593-603; Mendjan et al., 2006. Mol. Cell, 21: 811-823; Shumaker et al., 2006. Proc. Natl. Acad. Sci. USA, 103: 8703-8708; Tang et al., 2008. J. Cell Sci., 121: 1014-1024). To determine whether VEGF/HGF-dependent changes in nuclear shape similarly affect chromatin structure/function, chromatin packaging was tracked at the single-endothelial cell level by monitoring GFP-tagged histone H2B or pericentromeric constitutive heterochromatin localization. […] heterochromatin localization was visualized by immunostaining for trimethylated lysine 9 of histone H3 (H3K9me3) (Shumaker, supra; Tang, supra).
Histone acetylation can be regulated by chromatin positioning within the nucleus (Finlan et al., 2008. PLoS Genet, 4: e1000039; Somech et al., 2005. J. Cell Sci., 118: 4017-4025). Thus, the acetylation status of histones H3 and H4 was assessed as functional markers of changes in chromatin organization. […]

[2] = test system: β-actin, α-actinin, and MLC2; assay: Western blot with semi-quantitative densitometry of cytoskeletal proteins; format: cell-based, human; conditions: 3-D fibrin gel
From the text: Tractional forces exerted at cell-matrix adhesion sites require the activation of an actinomyosin motor complex whose assembly is tightly linked to actin cytoskeleton organization, non-muscle myosin II isoform expression, and the rigidity of the surrounding substratum (Meshel et al. 2005. Nat. Cell Biol., 7(2): 157-164; Engler, supra; and Even-Ram, supra; Yoneda et al. 2007. Mol. Cell. Biol., 19(1): 66-75). β-actin, α-actinin, myosin light chain-2 (MLC2), and non-muscle myosin IIA and IIB isoform (NMMIIA and NMMIIB, respectively) protein levels were monitored in 3-D embedded endothelial cells to determine the effect of Fn matrix inhibition on the expression of gene products critical to the generation of tractional forces. Endothelial cells were cultured in 3-D fibrin gels for 2 days with either the FUD peptide or the control Del29 peptide. Levels of β-actin, α-actinin, NMMIIA, NMMIIB, and MLC2 were measured by Western blot, with ERK1/2 serving as the loading control. As assessed by semi-quantitative densitometry, the levels of β-actin, actinin and MLC2 were 58±7% (n=5; mean±1 SD), 62% (n=2), and 60±12% (n=3; mean±1 SD) of control, respectively.

Compound | chromatin distribution [1] | levels of acetylated histones H3 and H4 [1] | level of actinin ([2]; 2 days, control Del29 peptide, n=2) | level of MLC2 ([2]; 2 days, control Del29 peptide, n=3, mean±1 SD) | level of β-actin ([2]; 2 days, control Del29 peptide, n=5, mean±1 SD) | levels of β-actin, α-actinin, and MLC2 ([2]; growth factor-stimulated)
Cc1ccc2c(c1)C(=O)C1(O)CCN(c3ccccc3)C1=N2 (stereo not drawn) [blebbistatin] | chromatin condensations at the nuclear periphery with increased interchromatin space | decreased levels |  |  |  | 
FUD: 49-residue functional upstream domain of Streptococcus pyogenes F1 adhesion protein, SEQ ID NO: 10; fibronectin fibril assembly inhibitor (KDQSPLAGESGETEYITEVYGNQQNPVDIDKKLPNETGFSGNMVETEDT; Streptococcus pyogenes; Functional Upstream Domain (FUD) of F1 adhesion protein) |  |  | 62 % of control | 60±12 % of control | 58±7 % of control | markedly reduced

Reference: patent US8697081B2, “Method of modulating neovascularization” (The Regents of the University of Michigan, priority 2008, dated 2014)
